{"source": "patent US20220125959A1", "about": "“PROSTATE-SPECIFIC MEMBRANE ANTIGEN (PSMA) INHIBITORS AS DIAGNOSTIC AND RADIONUCLIDE THERAPEUTIC AGENTS” (FIVE ELEVEN PHARMA INC., priority 2019, published 2022)", "key": {"[1]": {"test": "Stability of injected doses after formulation", "format": "physicochemical", "conditions": "at 2 hr after formulation", "protocol": "(§1) ^68Ga labeling: To 15 nmole ligand 4 (1 mg/mL DMSO) were added 20 μL of 2.0 N NaOAc, 500 μL ^68Ga-solution (2.25 mCi). The reaction was heated in a heating block at 90° C. for 10 minutes in a 3 mL closed vial. After cooling, the sample was analyzed by HPLC (HPLC: Eclise XDB C18 150×4.6 mm, gradient, 2 mL/min; A: 0.1% TFA in water; B: 0.1% TFA in ACN: 0-2 min 100% A; 2-4 min: from 0% to 100% B; 4-9 min: 100% B; 9-10 min: from 100% to 0% B). Radiochemical purity of [^68Ga]4 was >99% RCP (FIG. 1) and injected doses were stable at 2 hr after formulation.\n^177Lu labeling: To 10 μg ligand (1 mg/mL DMSO) were added 15 μL of 2.0 N NaOAc, 400 μL 0.05 N HCl, and 20 μL ^177Lu-solution (780 μCi (Capintec setting 450 (reading×10)). The reaction was heated with a heating block at 95° C. for 1 hour in a 3 mL closed vial. After cooling, the sample was analyzed by HPLC (HPLC: Eclipse XDB-C18 150×4.6 mm, gradient, 1 mL/min; A: 0.1% TFA in water; B: 0.1% TFA in ACN: 0-4 min A/B 85/15%; 4-11 min: from 85/15 to 30/70%; 11-14 min: from 30/70% to 85/15%). Radiochemical purity of [^177Lu]4 (FIG. 2) and [^177Lu]7 was >98% and injected doses were stable at 48 hr after formulation.\nFor iv injection 150 μL of labeled solution was diluted with saline to 3.75mL. Mice were injected with 150 μL of formulated dose. Injected radioactivity was 100 μCi and PSMA ligand amount was constant at 0.72 nmole/mouse."}, "[2]": {"tested_on": "PC3-PIP (PSMA positive) and PC-3 tumors (PSMA negative)", "test": "Biodistribution of [68Ga]4 in tumor bearing nude mice", "format": "in vivo, CD-1 male nude mice", "protocol": "as §1\nFor iv injection 150 μL of labeled solution was diluted with saline to 3 mL. Mice were injected with 150 μL of formulated dose. Injected radioactivity was 19-28 μCi and PSMA ligand amount was constant at 0.2 nmole/mouse.\nBiodistribution of [^68Ga]4, [^177Lu]4 and [^177Lu]7 was determined in nude mice bearing PIP PC3 (PSMA positive) and PC3 (PSMA negative) tumors on the left and right shoulder, respectively, over a period of 192 h (Table 3a, 3b and 3c). […] The uptake in PC3 tumors (PSMA negative) of both ligands, [^177Lu]4 and [^177Lu]7, was clearly much lower than those of PC-3 PIP tumors (PSMA positive)."}, "[3]": {"tested_on": "PSMA-negative cell line, PC3", "test": "In vitro cell uptake, PC3 cells", "format": "cell-based", "conditions": "PC3 (do not express PSMA), 60 min", "protocol": "To determine the cell uptakes of the [^177Lu] labelled ligands, 5×10^5 cells/well were grown in 12-well plates in 1 mL of medium for 48 h. The cells were washed twice with PBS, and 900 μL fresh media were added. Radiolabelled ligand was added and the PSMA-inhibitor (2-PMPA) was applied in a final concentration of 10 μM to determine unspecific binding. All samples were prepared in triplicate. Following the incubation at 37° C., cells were washed twice to remove unbound activity and afterwards lysed in 1 mL of 0.5 M NaOH. Activity was measured in a gamma counter. Aliquots of the solution added to the cells were also measured for the calculation of the cellular uptake as % ID."}, "[4]": {"tested_on": "PSMA-positive cell line, PIP PC3", "test": "In vitro cell uptake, PIP PC3 cells", "format": "cell-based", "protocol": "To determine the cell uptakes of the [^177Lu] labelled ligands, 5×10^5 cells/well were grown in 12-well plates in 1 mL of medium for 48 h. The cells were washed twice with PBS, and 900 μL fresh media were added. […] All samples were prepared in triplicate. Following the incubation at 37° C., cells were washed twice to remove unbound activity and afterwards lysed in 1 mL of 0.5 M NaOH. Activity was measured in a gamma counter. Aliquots of the solution added to the cells were also measured for the calculation of the cellular uptake as % ID."}}}
{"smiles": "O=C(O)CCC(C(=O)O)N1CCN(CC(=O)O)CCN(C(CCC(=O)NCC(=O)N[C@@H](Cc2ccc(OCC(=O)N[C@@H](Cc3ccccc3)C(=O)NCCCC[C@H](NC(=O)N[C@@H](CCC(=O)O)C(=O)O)C(=O)O)cc2)C(=O)O)C(=O)O)CCN(CC(=O)O)CC1.[68Ga]", "note": "(stereo partly drawn) [[^68Ga]4]", "values": [{"measurement": "Stability of injected doses", "setting": "[1]", "value": "stable"}, {"measurement": "Biodistribution: Blood", "setting": "[2]; 30 min", "value": "1.22 ± 0.06", "unit": "% dose/g"}, {"measurement": "Biodistribution: Bone", "setting": "[2]; 30 min", "value": "0.35 ± 0.01", "unit": "% dose/g"}, {"measurement": "Biodistribution: Brain", "setting": "[2]; 30 min", "value": "0.04 ± 0.01", "unit": "% dose/g"}, {"measurement": "Biodistribution: Heart", "setting": "[2]; 30 min", "value": "0.75 ± 0.12", "unit": "% dose/g"}, {"measurement": "Biodistribution: Intestine", "setting": "[2]; 30 min", "value": "0.48 ± 0.12", "unit": "% dose/g"}, {"measurement": "Biodistribution: Kidney", "setting": "[2]; 30 min", "value": "137.36 ± 12.92", "unit": "% dose/g"}, {"measurement": "Biodistribution: Liver", "setting": "[2]; 30 min", "value": "3.23 ± 0.31", "unit": "% dose/g"}, {"measurement": "Biodistribution: Lung", "setting": "[2]; 30 min", "value": "2.46 ± 0.37", "unit": "% dose/g"}, {"measurement": "Biodistribution: Muscle", "setting": "[2]; 30 min", "value": "0.51 ± 0.07", "unit": "% dose/g"}, {"measurement": "Biodistribution: PC3-PSMA- tumor", "setting": "[2]; 30 min", "value": "1.59 ± 0.27", "unit": "% dose/g"}, {"measurement": "Biodistribution: PIP-PSMA+ tumor", "setting": "[2]; 30 min", "value": "12.88 ± 2.08", "unit": "% dose/g"}, {"measurement": "Biodistribution: Pancreas", "setting": "[2]; 30 min", "value": "1.57 ± 0.93", "unit": "% dose/g"}, {"measurement": "Biodistribution: Skin", "setting": "[2]; 30 min", "value": "1.71 ± 0.22", "unit": "% dose/g"}, {"measurement": "Biodistribution: Spleen", "setting": "[2]; 30 min", "value": "7.19 ± 1.55", "unit": "% dose/g"}, {"measurement": "Biodistribution: Stomach", "setting": "[2]; 30 min", "value": "0.44 ± 0.28", "unit": "% dose/g"}, {"measurement": "Biodistribution: Blood", "setting": "[2]; 1 hr", "value": "0.65 ± 0.08", "unit": "% dose/g"}, {"measurement": "Biodistribution: Bone", "setting": "[2]; 1 hr", "value": "0.17 ± 0.01", "unit": "% dose/g"}, {"measurement": "Biodistribution: Brain", "setting": "[2]; 1 hr", "value": "0.03 ± 0.00", "unit": "% dose/g"}, {"measurement": "Biodistribution: Heart", "setting": "[2]; 1 hr", "value": "0.43 ± 0.06", "unit": "% dose/g"}, {"measurement": "Biodistribution: Intestine", "setting": "[2]; 1 hr", "value": "0.44 ± 0.13", "unit": "% dose/g"}, {"measurement": "Biodistribution: Kidney", "setting": "[2]; 1 hr", "value": "166.31 ± 18.62", "unit": "% dose/g"}, {"measurement": "Biodistribution: Liver", "setting": "[2]; 1 hr", "value": "2.87 ± 0.30", "unit": "% dose/g"}, {"measurement": "Biodistribution: Lung", "setting": "[2]; 1 hr", "value": "1.52 ± 0.28", "unit": "% dose/g"}, {"measurement": "Biodistribution: Muscle", "setting": "[2]; 1 hr", "value": "0.21 ± 0.05", "unit": "% dose/g"}, {"measurement": "Biodistribution: PC3-PSMA- tumor", "setting": "[2]; 1 hr", "value": "1.14 ± 0.25", "unit": "% dose/g"}, {"measurement": "Biodistribution: PIP-PSMA+ tumor", "setting": "[2]; 1 hr", "value": "13.86 ± 1.54", "unit": "% dose/g"}, {"measurement": "Biodistribution: Pancreas", "setting": "[2]; 1 hr", "value": "0.75 ± 0.13", "unit": "% dose/g"}, {"measurement": "Biodistribution: Skin", "setting": "[2]; 1 hr", "value": "0.64 ± 0.26", "unit": "% dose/g"}, {"measurement": "Biodistribution: Spleen", "setting": "[2]; 1 hr", "value": "4.60 ± 1.80", "unit": "% dose/g"}, {"measurement": "Biodistribution: Stomach", "setting": "[2]; 1 hr", "value": "0.34 ± 0.19", "unit": "% dose/g"}, {"measurement": "Biodistribution: Blood", "setting": "[2]; 2 hr", "value": "0.53 ± 0.11", "unit": "% dose/g"}, {"measurement": "Biodistribution: Bone", "setting": "[2]; 2 hr", "value": "0.19 ± 0.03", "unit": "% dose/g"}, {"measurement": "Biodistribution: Brain", "setting": "[2]; 2 hr", "value": "0.03 ± 0.00", "unit": "% dose/g"}, {"measurement": "Biodistribution: Heart", "setting": "[2]; 2 hr", "value": "0.25 ± 0.04", "unit": "% dose/g"}, {"measurement": "Biodistribution: Intestine", "setting": "[2]; 2 hr", "value": "0.38 ± 0.04", "unit": "% dose/g"}, {"measurement": "Biodistribution: Kidney", "setting": "[2]; 2 hr", "value": "116.41 ± 51.94", "unit": "% dose/g"}, {"measurement": "Biodistribution: Liver", "setting": "[2]; 2 hr", "value": "2.54 ± 0.16", "unit": "% dose/g"}, {"measurement": "Biodistribution: Lung", "setting": "[2]; 2 hr", "value": "1.05 ± 0.08", "unit": "% dose/g"}, {"measurement": "Biodistribution: Muscle", "setting": "[2]; 2 hr", "value": "0.14 ± 0.07", "unit": "% dose/g"}, {"measurement": "Biodistribution: PC3-PSMA- tumor", "setting": "[2]; 2 hr", "value": "0.74 ± 0.23", "unit": "% dose/g"}, {"measurement": "Biodistribution: PIP-PSMA+ tumor", "setting": "[2]; 2 hr", "value": "16.74 ± 2.75", "unit": "% dose/g"}, {"measurement": "Biodistribution: Pancreas", "setting": "[2]; 2 hr", "value": "0.50 ± 0.15", "unit": "% dose/g"}, {"measurement": "Biodistribution: Skin", "setting": "[2]; 2 hr", "value": "0.62 ± 0.31", "unit": "% dose/g"}, {"measurement": "Biodistribution: Spleen", "setting": "[2]; 2 hr", "value": "3.41 ± 2.46", "unit": "% dose/g"}, {"measurement": "Biodistribution: Stomach", "setting": "[2]; 2 hr", "value": "0.20 ± 0.09", "unit": "% dose/g"}, {"measurement": "Tumor uptake", "setting": "[2]; suitable for PET imaging", "value": "excellent tumor uptake"}]}
{"smiles": "O=C(O)CC[C@H](NC(=O)N[C@@H](CCCCNC(=O)[C@H](Cc1ccc2ccccc2c1)NC(=O)[C@H]1CC[C@H](CNC(=O)CN2CCN(CC(=O)O)CCN(CC(=O)O)CCN(CC(=O)O)CC2)CC1)C(=O)O)C(=O)O.[177Lu]", "note": "[[^177Lu]PSMA-617, reference compound]", "values": [{"measurement": "In vitro cell uptake", "setting": "[3]", "value": 0.3, "unit": "% ID per 5 × 10^5 cells"}, {"measurement": "In vitro cell uptake", "setting": "[4]; PIP PC3, 5 min", "value": 3.5, "unit": "% ID per 5 × 10^5 cells"}, {"measurement": "In vitro cell uptake", "setting": "[4]; PIP PC3, 15 min", "value": 5.8, "unit": "% ID per 5 × 10^5 cells"}, {"measurement": "In vitro cell uptake", "setting": "[4]; PIP PC3, 30 min", "value": 6.8, "unit": "% ID per 5 × 10^5 cells"}, {"measurement": "In vitro cell uptake", "setting": "[4]; PIP PC3, 60 min", "value": 8.2, "unit": "% ID per 5 × 10^5 cells"}, {"measurement": "In vitro cell uptake", "setting": "[4]; PIP PC3, 60 min, with PSMA inhibitor (2-PMPA, 2 uM)", "value": 1.0, "unit": "% ID per 5 × 10^5 cells"}, {"measurement": "In vitro cell uptake", "setting": "[4]; PIP PC3, 120 min", "value": 9.6, "unit": "% ID per 5 × 10^5 cells"}]}
